Results as given in patent publication US20100286247A1, “Methods of Protection from Oxidative Stress” (Trustees of Boston University, priority 2005, published 2010).
{P} = phosphate

Key:
[1] = test system: GPX mRNA; test: Northern blot analysis of antioxidant enzyme mRNA: GPX; type: cell-based, human; conditions: 100 μM pTT, 8-72 hours
Procedure: Cell culture followed previously published methods.^92 Primary human newborn dermal fibroblasts were cultured from neonatal circumcised foreskin specimens. The skin samples were treated overnight in a 0.25% trypsin solution at 4° C. to separate the epidermis from the dermis. The separated dermis was then cut into pieces and plated onto etched plastic tissue culture dishes. Primary culture medium consisted of DMEM supplemented with 10% bovine CS, 50 U/ml penicillin and 50 μg/ml streptomycin sulfate. […] Secondary culture medium consisted of DMEM supplemented with 10% CS.
Purified 5′-phosphorylated thymidine dinucleotides (pTT) (Midland Certified Reagents, Inc., Texas) purified by gel filtration and analyzed by mass spectroscopy, were obtained in lyophilized form. […] The stock solution was syringe filter-sterilized through a 0.2 μm pore filter and spectrophotometrically analyzed (absorbance at 260 and 280 nm) to determine the concentration, and frozen in aliquots at −20° C. […]
Cells were harvested in Trizol (Gibco BRL, Gaithersburg, Md.) and stored at −70° C. […] RNA solutions were measured by spectrophotometer readings at 260 nm and 280 nm to determine concentration and purity. […]
Northern and western films as well as stained membranes and pictures of ethidium bromide-stained gels were digitally scanned and analyzed by densitometry. […]

[2] = test system: extracellular H2O2 from newborn fibroblasts; test: Extracellular hydrogen peroxide generation assay (horseradish peroxidase); type: cell-based, human; conditions: 100 μM, two days treatment
Procedure: This assay was described by Ruch et al. for measurement of H2O2 production by macrophages and neutrophils^93 and modified for cultured cytokine-stimulated human lung fibroblasts by Thannickal et al.^94 Briefly, it utilizes horseradish peroxidase (HRP) to catalyze H2O2-dependent dimerization of tyrosine in homovanillic acid (HVA), where the H2O2 is the extracellular fraction of H2O2 produced by stimulated cells. Fibroblasts were seeded at 0.5×10^4 cells/cm^2 and treated the following day with diluent, 100 μM pTT, 100 μM pAA, 40 μM TO or 40 μM TOC1 for two days. These doses were determined in previous studies to be the optimal effective doses to achieve p53 induction and cell cycle arrest in fibroblasts within the parameters used in these investigations (cell seeding density and time of treatment).^13,142 An assay medium consisting of sterile Hanks' Balanced Salt Solution (HBSS), HRP (5 U/ml) and HVA ([…]) was added to cells after removal of the T-oligo-supplemented medium. […] Each sample was fluorometrically analyzed by excitation of the dimerized tyrosine product at 323 nm with emission measured at 423 nm (Perkin-Elmer LS-5B Luminescence Spectrometer). The same cells were then harvested and counted by Coulter Counter. […] Using the cell count results, H2O2 production was expressed as a function of time and cell number (pmol/min/million cells). […]

[3] = test system: phospho-p53 (Ser-15); test: Western blot of activated p53 (serine-15 phosphorylation); type: cell-based, human; conditions: by 36-48 hours, sustained through 72 hours; 40 μM TO, 100 μM pTT
Procedure: Western blot analysis of proteins from cells treated and harvested in parallel with DCF time course studies was conducted as described above. Membranes were reacted with antibodies to total p53/DO-1 (1:1000 dilution, Oncogene Research Products, Cambridge, Mass.), anti-phoso-p53 (Ser-15) (1:1000 dilution, Cell Signaling Technology, Beverly, Mass.), and p21/Cip1/Waf1 (1:500 dilution, Transduction Laboratories, Lexington, Ky.), followed by appropriate secondary antibodies diluted 1:2000.

[4] = test system: human dermal fibroblasts; conditions: treatment for 7 days, Li et al.; cited from earlier work

| Substance | GPX mRNA level compared to diluent [1] | extracellular H2O2 production [2] | phospho-p53-ser15 response, TO vs pTT [3] | cells expressing senescence-associated-β-galactosidase after prolonged treatment [4] |
| --- | --- | --- | --- | --- |
| 5′-phosphorylated thymidine dinucleotides [pTT] | remain unchanged | does not yield extracellular H2O2 |  |  |
| pGTTAGGGTTAG (5' {P}, sugars by position and backbone not given here) [TO] |  |  | greater than to pTT | over 60% |
